Active and inactive are the calls of the source. The rule behind the calls is not given here.
What was measured:
[1] = Plasma clearance in monkey at 5 mg/kg, iv or 30 mg/kg, po; assay type: ADME, organism-based, Macaca mulatta; details: rhesus monkey
[2] = Renal clearance in monkey at 5 mg/kg, iv or 30 mg/kg, po; assay type: ADME, organism-based, Macaca mulatta, Kidney; details: rhesus monkey, in vivo; read-out: CL_renal
[3] = Half life in monkey at 5 mg/kg, iv or 30 mg/kg, po; assay type: ADME, organism-based, Macaca mulatta; details: rhesus monkey, in vivo
[4] = Volume of distribution at steady state in monkey at 5 mg/kg, iv or 30 mg/kg, po; assay type: ADME, organism-based, Macaca mulatta; details: rhesus monkey, in vivo, read-out: Vdss
[5] = Cmax in monkey at 5 mg/kg, iv or 30 mg/kg, po; assay type: ADME, organism-based, Macaca mulatta; details: rhesus monkey, in vivo
[6] = Tmax in monkey at 5 mg/kg, iv or 30 mg/kg, po; assay type: ADME, organism-based, Macaca mulatta; details: rhesus monkey, in vivo
[7] = AUC in monkey at 5 mg/kg, iv or 30 mg/kg, po; assay type: ADME, organism-based, Macaca mulatta; details: rhesus monkey, plasma
[8] = Bioavailability in monkey at 5 mg/kg, iv or 30 mg/kg, po; assay type: ADME, organism-based, Macaca mulatta; details: rhesus monkey, in vivo
[9] = Plasma clearance in Beagle dog at 5 mg/kg, iv or 30 mg/kg, po; assay type: ADME, organism-based, Canis lupus familiaris
[10] = Renal clearance in Beagle dog at 5 mg/kg, iv or 30 mg/kg, po; assay type: ADME, organism-based, Canis lupus familiaris, Kidney; details: in vivo, read-out: CL_renal
[11] = Half life in Beagle dog at 5 mg/kg, iv or 30 mg/kg, po; assay type: ADME, organism-based, Canis lupus familiaris; details: in vivo
[12] = Volume of distribution at steady state in Beagle dog at 5 mg/kg, iv or 30 mg/kg, po; assay type: ADME, organism-based, Canis lupus familiaris; details: in vivo, read-out: Vdss
[13] = Cmax in Beagle dog at 5 mg/kg, iv or 30 mg/kg, po; assay type: ADME, organism-based, Canis lupus familiaris; details: in vivo
[14] = Tmax in Beagle dog at 5 mg/kg, iv or 30 mg/kg, po; assay type: ADME, organism-based, Canis lupus familiaris; details: in vivo
[15] = AUC in Beagle dog at 5 mg/kg, iv or 30 mg/kg, po; assay type: ADME, organism-based, Canis lupus familiaris; details: plasma
[16] = Bioavailability in Beagle dog at 5 mg/kg, iv or 30 mg/kg, po; assay type: ADME, organism-based, Canis lupus familiaris; details: in vivo
[17] = biological target: Sodium-dependent serotonin transporter (Rattus norvegicus, UniProt P31652); assay type: cell-based, HEK293
Sodium-dependent serotonin transporter (Rattus norvegicus, UniProt P31652), sequence (P31652 whole entry): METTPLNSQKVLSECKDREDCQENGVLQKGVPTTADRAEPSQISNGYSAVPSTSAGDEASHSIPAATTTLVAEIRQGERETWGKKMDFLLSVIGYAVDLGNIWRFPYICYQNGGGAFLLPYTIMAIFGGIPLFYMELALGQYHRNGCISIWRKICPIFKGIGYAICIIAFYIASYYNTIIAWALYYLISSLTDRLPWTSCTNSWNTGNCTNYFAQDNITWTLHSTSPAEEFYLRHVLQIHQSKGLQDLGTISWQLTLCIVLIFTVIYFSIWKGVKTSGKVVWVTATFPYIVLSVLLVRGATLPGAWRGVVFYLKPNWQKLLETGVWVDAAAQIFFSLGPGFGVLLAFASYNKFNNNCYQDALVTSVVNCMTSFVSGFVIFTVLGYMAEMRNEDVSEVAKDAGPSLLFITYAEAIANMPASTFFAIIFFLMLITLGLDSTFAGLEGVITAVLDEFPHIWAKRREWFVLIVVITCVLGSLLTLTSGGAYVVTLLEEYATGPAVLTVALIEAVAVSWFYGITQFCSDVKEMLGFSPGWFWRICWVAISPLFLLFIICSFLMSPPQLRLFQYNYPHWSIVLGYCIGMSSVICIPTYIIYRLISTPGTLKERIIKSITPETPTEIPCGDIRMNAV

[18] = Lipophilicity, log D of the compound; assay type: physicochemical; details: octanol/water
[19] = Partition coefficient, log P of the compound; assay type: physicochemical; details: octanol/water
[20] = Metabolic stability in human liver microsomes assessed as systemic clearance at 1 uM after 15 mins by LC-MS/MS analysis; assay type: ADME, Microsome
[21] = Metabolic stability in rat liver microsomes assessed as systemic clearance at 1 uM after 15 mins by LC-MS/MS analysis; assay type: ADME, Microsome
Cytochrome P450 2D6 = Cytochrome P450 2D6 (Homo sapiens, UniProt P10635); test: Inhibition of CYP2D6; assay type: ADME
[22] = Cmax in Sprague-Dawley rat at 30 mg/kg, po; assay type: ADME, organism-based; design: dose 30 mg/kg, route oral; details: in vivo
[23] = Tmax in Sprague-Dawley rat at 30 mg/kg, po; assay type: ADME, organism-based; design: dose 30 mg/kg, route oral; details: in vivo
[24] = AUC in Sprague-Dawley rat at 30 mg/kg, po; assay type: ADME, organism-based; design: dose 30 mg/kg, route oral; details: plasma
[25] = Apparent elimination half life in Sprague-Dawley rat at 30 mg/kg, po; assay type: ADME, organism-based; design: dose 30 mg/kg, route oral; details: in vivo, read-out: beta t1/2 (converted)
[26] = Apparent oral clearance in Sprague-Dawley rat at 30 mg/kg, po; assay type: ADME, organism-based; design: dose 30 mg/kg, route oral; details: in vivo
[27] = Drug level in Sprague-Dawley rat brain at 30 mg/kg, po after 1 hr; assay type: ADME, organism-based; design: dose 30 mg/kg, route oral; details: read-out: Drug uptake
[28] = Drug level in Sprague-Dawley rat brain at 30 mg/kg, po after 4 hrs; assay type: ADME, organism-based; design: dose 30 mg/kg, route oral; details: read-out: Drug uptake
[29] = Ratio of drug level in brain to plasma in Sprague-Dawley rat at 30 mg/kg, po after 1 hr; assay type: ADME, organism-based; design: dose 30 mg/kg, route oral
[30] = Ratio of drug level in brain to plasma in Sprague-Dawley rat at 30 mg/kg, po after 4 hrs; assay type: ADME, organism-based; design: dose 30 mg/kg, route oral
[31] = AUC in Sprague-Dawley rat at 5 mg/kg, iv; assay type: ADME, organism-based; design: dose 5 mg/kg, route intravenous; details: plasma
[32] = Half life in Sprague-Dawley rat at 5 mg/kg, iv; assay type: ADME, organism-based; design: dose 5 mg/kg, route intravenous; details: in vivo
[33] = Mean residence time in Sprague-Dawley rat at 5 mg/kg, iv; assay type: ADME, organism-based; design: dose 5 mg/kg, route intravenous; details: in vivo
[34] = Plasma clearance in Sprague-Dawley rat at 5 mg/kg, iv; assay type: ADME, organism-based; design: dose 5 mg/kg, route intravenous
[35] = Renal clearance in Sprague-Dawley rat at 5 mg/kg, iv; assay type: ADME, organism-based, Kidney; design: dose 5 mg/kg, route intravenous; details: in vivo, read-out: CL_renal
[36] = Volume of distribution at steady state in Sprague-Dawley rat at 5 mg/kg, iv; assay type: ADME, organism-based; design: dose 5 mg/kg, route intravenous; details: in vivo, read-out: Vdss
[37] = Volume of distribution in Sprague-Dawley rat at 5 mg/kg, iv; assay type: ADME, organism-based; design: dose 5 mg/kg, route intravenous; details: in vivo
[38] = Bioavailability in Sprague-Dawley rat at 5 mg/kg, iv; assay type: ADME, organism-based; details: in vivo
Rattus norvegicus [39] = test: Antinociceptive activity in CD rat assessed as reduction in number of hind paw flinching at 60 mg/kg, po by formalin test; assay type: functional; design: scale not given: the % may be the effect or the level left
[40] = Drug excretion in Sprague-Dawley rat urine at 5 mg/kg, iv; assay type: ADME, organism-based; design: dose 5 mg/kg, route intravenous; details: read-out: Activity
[41] = biological target: Voltage-gated inwardly rectifying potassium channel KCNH2 (Homo sapiens, UniProt Q12809)
Voltage-gated inwardly rectifying potassium channel KCNH2, sequence (Q12809 whole entry): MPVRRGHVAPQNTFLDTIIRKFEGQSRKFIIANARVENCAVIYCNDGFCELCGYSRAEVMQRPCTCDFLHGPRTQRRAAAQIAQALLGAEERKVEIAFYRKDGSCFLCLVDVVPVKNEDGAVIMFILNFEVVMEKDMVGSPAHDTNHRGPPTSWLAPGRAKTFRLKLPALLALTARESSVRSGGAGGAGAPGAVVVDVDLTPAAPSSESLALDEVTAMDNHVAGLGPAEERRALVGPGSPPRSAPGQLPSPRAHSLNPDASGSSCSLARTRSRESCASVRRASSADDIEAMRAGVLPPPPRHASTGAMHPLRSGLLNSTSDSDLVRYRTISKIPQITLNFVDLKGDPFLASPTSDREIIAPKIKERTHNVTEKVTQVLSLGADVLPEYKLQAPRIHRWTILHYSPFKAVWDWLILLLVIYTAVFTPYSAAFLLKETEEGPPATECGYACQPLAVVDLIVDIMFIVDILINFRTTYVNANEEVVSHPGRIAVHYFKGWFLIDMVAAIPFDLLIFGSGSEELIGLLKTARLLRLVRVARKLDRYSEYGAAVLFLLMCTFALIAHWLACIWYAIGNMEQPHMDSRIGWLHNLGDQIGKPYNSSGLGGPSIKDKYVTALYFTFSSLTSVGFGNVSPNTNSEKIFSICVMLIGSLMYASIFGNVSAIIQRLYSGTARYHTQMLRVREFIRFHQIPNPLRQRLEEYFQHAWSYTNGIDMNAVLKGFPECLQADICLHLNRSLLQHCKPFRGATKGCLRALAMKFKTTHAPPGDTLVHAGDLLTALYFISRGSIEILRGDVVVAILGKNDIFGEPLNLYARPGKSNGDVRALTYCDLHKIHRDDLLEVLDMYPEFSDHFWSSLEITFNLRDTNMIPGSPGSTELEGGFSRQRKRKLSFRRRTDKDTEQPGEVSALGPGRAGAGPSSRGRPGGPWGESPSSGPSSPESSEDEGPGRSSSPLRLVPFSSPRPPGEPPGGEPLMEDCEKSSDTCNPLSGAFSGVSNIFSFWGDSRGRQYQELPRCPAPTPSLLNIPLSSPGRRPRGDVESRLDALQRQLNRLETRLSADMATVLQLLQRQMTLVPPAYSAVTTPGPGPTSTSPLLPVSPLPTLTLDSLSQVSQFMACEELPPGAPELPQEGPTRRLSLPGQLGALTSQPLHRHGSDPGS
Description: Inhibition of human ERG expressed in HEK293 cells by patch-clamp method

in vitro = details: human, Caco-2
Description: Apparent permeability from apical to basolateral side of the human Caco-2 cells

[42] = biological target: Sodium-dependent noradrenaline transporter (Homo sapiens, UniProt P23975); test: biochemical
Sodium-dependent noradrenaline transporter, sequence (P23975 whole entry): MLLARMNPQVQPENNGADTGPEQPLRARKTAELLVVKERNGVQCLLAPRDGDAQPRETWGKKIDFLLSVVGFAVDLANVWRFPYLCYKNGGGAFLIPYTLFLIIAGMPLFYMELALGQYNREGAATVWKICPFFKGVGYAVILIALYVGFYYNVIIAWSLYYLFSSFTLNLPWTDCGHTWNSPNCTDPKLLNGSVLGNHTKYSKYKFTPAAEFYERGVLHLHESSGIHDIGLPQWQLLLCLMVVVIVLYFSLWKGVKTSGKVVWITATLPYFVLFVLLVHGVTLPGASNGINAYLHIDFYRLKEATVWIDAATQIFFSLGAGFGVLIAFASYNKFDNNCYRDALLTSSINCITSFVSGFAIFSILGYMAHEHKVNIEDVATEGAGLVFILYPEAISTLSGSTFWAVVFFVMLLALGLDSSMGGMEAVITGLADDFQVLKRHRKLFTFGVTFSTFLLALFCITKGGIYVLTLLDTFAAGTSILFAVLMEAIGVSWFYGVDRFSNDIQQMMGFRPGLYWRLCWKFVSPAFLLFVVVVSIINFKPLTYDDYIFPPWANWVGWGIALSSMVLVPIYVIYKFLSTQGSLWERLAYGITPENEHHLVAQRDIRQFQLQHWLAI
Description: Displacement of Levo[ring-2,5,6-3H]norepinephrine from human cloned NET expressed in HEK293 cells by microplate scintillation counter

[43] = biological target: Sodium-dependent serotonin transporter (Homo sapiens, UniProt P31645); test: biochemical
Sodium-dependent serotonin transporter (Homo sapiens, UniProt P31645), sequence (P31645 whole entry): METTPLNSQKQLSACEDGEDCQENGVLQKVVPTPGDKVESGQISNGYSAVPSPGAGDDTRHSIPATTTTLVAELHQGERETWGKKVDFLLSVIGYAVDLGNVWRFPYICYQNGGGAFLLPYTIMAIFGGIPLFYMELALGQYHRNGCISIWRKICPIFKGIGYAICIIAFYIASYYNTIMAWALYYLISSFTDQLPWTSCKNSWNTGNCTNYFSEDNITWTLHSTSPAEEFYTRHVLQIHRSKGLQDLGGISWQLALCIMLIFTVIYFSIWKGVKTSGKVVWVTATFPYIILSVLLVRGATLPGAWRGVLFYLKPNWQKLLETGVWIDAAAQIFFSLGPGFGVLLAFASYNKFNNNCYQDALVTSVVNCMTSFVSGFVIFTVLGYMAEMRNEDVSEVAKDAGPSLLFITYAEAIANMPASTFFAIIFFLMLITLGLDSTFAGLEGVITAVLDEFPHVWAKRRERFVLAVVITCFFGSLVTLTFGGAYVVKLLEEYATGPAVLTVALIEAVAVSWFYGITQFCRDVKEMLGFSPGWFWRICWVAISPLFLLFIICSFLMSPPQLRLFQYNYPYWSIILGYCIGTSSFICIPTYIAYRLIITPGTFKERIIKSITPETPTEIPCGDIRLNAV
Description: Displacement of [alpha,beta-3H(N)]-5-hydroxytryptamine from human cloned SERT expressed in HEK293 cells by microplate scintillation counter

[44] = biological target: Sodium-dependent dopamine transporter (Homo sapiens, UniProt Q01959); test: biochemical
Sodium-dependent dopamine transporter (Homo sapiens, UniProt Q01959), sequence (Q01959 whole entry): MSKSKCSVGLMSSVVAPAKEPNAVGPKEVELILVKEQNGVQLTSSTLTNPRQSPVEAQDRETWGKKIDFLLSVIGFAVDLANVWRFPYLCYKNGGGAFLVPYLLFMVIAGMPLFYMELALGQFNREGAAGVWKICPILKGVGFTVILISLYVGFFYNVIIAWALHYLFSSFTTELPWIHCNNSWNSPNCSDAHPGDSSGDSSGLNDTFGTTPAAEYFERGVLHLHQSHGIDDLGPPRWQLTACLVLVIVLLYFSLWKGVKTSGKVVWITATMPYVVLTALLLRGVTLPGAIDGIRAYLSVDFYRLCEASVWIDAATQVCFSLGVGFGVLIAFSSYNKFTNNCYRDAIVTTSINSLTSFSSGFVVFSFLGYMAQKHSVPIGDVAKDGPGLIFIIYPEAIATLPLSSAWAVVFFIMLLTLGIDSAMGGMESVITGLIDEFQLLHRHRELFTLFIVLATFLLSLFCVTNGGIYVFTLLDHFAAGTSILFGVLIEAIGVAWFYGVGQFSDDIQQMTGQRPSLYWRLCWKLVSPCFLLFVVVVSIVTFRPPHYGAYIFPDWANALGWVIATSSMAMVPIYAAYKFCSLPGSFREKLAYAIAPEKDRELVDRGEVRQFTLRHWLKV
Description: Displacement of 3,4-[ring-2,5,6-3H]dihydroxyphenylethylamine from human cloned DAT expressed in HEK293 cells by microplate scintillation counter

Transporter = Transporter (Rattus norvegicus, UniProt Q63380); test: biochemical
Transporter, sequence (Q63380 whole entry): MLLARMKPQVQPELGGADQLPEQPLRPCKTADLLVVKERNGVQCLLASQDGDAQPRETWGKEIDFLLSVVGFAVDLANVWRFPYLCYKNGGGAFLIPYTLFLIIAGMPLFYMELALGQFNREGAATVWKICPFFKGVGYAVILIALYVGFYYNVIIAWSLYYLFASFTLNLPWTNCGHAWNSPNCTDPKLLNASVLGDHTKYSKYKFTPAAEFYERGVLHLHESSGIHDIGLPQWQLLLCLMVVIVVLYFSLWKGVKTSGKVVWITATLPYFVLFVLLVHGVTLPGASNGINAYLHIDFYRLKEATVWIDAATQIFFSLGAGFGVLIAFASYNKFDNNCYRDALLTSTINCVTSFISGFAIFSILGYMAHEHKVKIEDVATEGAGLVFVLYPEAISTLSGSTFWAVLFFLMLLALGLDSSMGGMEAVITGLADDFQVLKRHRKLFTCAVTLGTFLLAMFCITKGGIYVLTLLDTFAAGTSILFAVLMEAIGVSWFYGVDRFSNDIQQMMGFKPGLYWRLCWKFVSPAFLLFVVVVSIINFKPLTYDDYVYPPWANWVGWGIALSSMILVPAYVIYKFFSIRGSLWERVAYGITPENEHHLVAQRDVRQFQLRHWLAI
Description: Displacement of Levo[ring-2,5,6-3H]norepinephrine from rat synaptosomal NET expressed in HEK293 cells by microplate scintillation counter

[45] = biological target: Sodium-dependent dopamine transporter (Rattus norvegicus, UniProt P23977); test: biochemical
Sodium-dependent dopamine transporter (Rattus norvegicus, UniProt P23977), sequence (P23977 whole entry): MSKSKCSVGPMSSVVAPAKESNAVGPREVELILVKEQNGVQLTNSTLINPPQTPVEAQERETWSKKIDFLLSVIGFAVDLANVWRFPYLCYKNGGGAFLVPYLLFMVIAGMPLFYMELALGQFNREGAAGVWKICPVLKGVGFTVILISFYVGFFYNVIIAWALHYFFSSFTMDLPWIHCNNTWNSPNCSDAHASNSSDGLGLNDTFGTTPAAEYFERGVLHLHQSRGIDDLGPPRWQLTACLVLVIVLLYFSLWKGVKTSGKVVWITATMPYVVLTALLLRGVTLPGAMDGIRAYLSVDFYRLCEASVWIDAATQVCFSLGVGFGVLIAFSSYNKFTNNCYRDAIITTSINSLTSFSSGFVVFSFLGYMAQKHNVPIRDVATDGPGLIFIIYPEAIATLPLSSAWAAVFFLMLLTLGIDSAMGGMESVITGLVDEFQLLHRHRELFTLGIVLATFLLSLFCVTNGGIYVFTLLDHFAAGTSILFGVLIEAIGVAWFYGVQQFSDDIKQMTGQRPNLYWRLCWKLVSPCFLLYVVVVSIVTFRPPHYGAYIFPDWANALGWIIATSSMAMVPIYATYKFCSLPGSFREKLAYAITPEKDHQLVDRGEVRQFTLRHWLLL
Description: Displacement of 3,4-[ring-2,5,6-3H]dihydroxyphenylethylamine from rat synaptosomal DAT expressed in HEK293 cells by microplate scintillation counter

Rattus norvegicus [46] = test: Antinociceptive activity in CD rat assessed as reduction in number of hind paw flinching at 30 mg/kg, po by formalin test; assay type: functional, organism-based; design: dose 30 mg/kg
Rattus norvegicus [47] = organism: Rattus norvegicus; test: Reversal of pin-prick-induced neuropathic mechanical hyperalgesia in Harlan Sprague-Dawley rat sciatic nerve ligation model; assay type: functional, organism-based
[48] = Plasma clearance in mouse at 5 mg/kg, iv or 30 mg/kg, po; assay type: ADME, organism-based
[49] = Half life in mouse at 5 mg/kg, iv or 30 mg/kg, po; assay type: ADME, organism-based; details: in vivo
[50] = Volume of distribution at steady state in mouse at 5 mg/kg, iv or 30 mg/kg, po; assay type: ADME, organism-based; details: in vivo, read-out: Vdss
[51] = Cmax in mouse at 5 mg/kg, iv or 30 mg/kg, po; assay type: ADME, organism-based; details: in vivo, read-out: Vdss
[52] = Tmax in mouse at 5 mg/kg, iv or 30 mg/kg, po; assay type: ADME, organism-based; details: in vivo
[53] = AUC in mouse at 5 mg/kg, iv or 30 mg/kg, po; assay type: ADME, organism-based; details: plasma
[54] = Bioavailability in mouse at 5 mg/kg, iv or 30 mg/kg, po; assay type: ADME, organism-based; details: in vivo

Description for physchem: Dissociation constant, pKa of the compound

## C=C(F)CN(CC)C(=O)[C@@]1(c2cccs2)C[C@H]1CN.Cl
[1]
  clearance: 2.04 L/h/kg
[2]
  CL renal: 0.36 L/h/kg
[3]
  half-life: 4.3 h
[4]
  Vd: 4.4 L/kg
[5]
  Cmax: 2.44 µg/mL
[6]
  Tmax: 2.3 h
[7]
  AUC: 9.05 µg·h/mL
[8]
  bioavailability: 70%
[9]
  clearance: 0.648 L/h/kg
[10]
  CL renal: 0.132 L/h/kg
[11]
  half-life: 3.5 h
[12]
  Vd: 2.4 L/kg
[13]
  Cmax: 5.57 µg/mL
[14]
  Tmax: 1.2 h
[15]
  AUC: 47.5 µg·h/mL
[16]
  bioavailability: 109%

## C=C(F)CN(CC)C(=O)[C@@]1(c2cccs2)C[C@H]1CN
[17]
  IC50: 0.16 µM
[18]
  logD: 0.2
[19]
  logP: 1.8
[20]
  CLhep predicted at 1 µM: 0.156 L/h/kg
[21]
  CLhep predicted at 1 µM: 3.24 L/h/kg
Cytochrome P450 2D6
  IC50: 6 µM
[22]
  Cmax: 0.974 µg/mL
[23]
  Tmax: 0.4 h
[24]
  AUC: 1.5 µg·h/mL
[25]
  half-life: 0.9 h
[26]
  CL/F: 20 L/h/kg
[27]
  concentration at 1 h: 70 ng/g
[28]
  concentration at 4 h: 31 ng/g
[29]
  Kp at 1 h: 0.73
[30]
  Kp at 4 h: 1.1
[31]
  AUC: 0.532 µg·h/mL
[32]
  half-life: 0.6 h
[33]
  MRT: 0.7 h
[34]
  clearance: 8.4 L/h/kg
[35]
  CL renal: 3.54 L/h/kg
[36]
  Vd: 5.5 L/kg
[37]
  Vd: 7.5 L/kg
[38]
  bioavailability: 47%
Rattus norvegicus [39]
  Activity: 56%
[40]
  dose excreted: 30%
[41]
  IC50: > 10 µM
physchem
  pKa: 9.4
In vitro
  Papp A→B: 167 nm/s
[42]
  IC50: 0.0044 µM
[43]
  IC50: 0.097 µM
[44]
  IC50: > 10 µM
Transporter
  IC50: 0.021 µM
[45]
  IC50: > 10 µM

## NC[C@@H]1C[C@@]1(C(=O)N1Cc2ccccc2C1)c1cccs1
[17]
  IC50: 0.025 µM
[18]
  logD: 0.5
[19]
  logP: 2.2
[20]
  CLhep predicted at 1 µM: 0.528 L/h/kg
[21]
  CLhep predicted at 1 µM: 3.84 L/h/kg
[22]
  Cmax: 0.058 µg/mL
[23]
  Tmax: 1.1 h
[24]
  AUC: 0.272 µg·h/mL
[25]
  half-life: 2.3 h
[26]
  CL/F: 110 L/h/kg
[27]
  concentration at 1 h: 28 ng/g
[28]
  concentration at 4 h: 24 ng/g
[29]
  Kp at 1 h: 1
[30]
  Kp at 4 h: 1.8
Rattus norvegicus [39]
  Activity: 56%
physchem
  pKa: 9.5
In vitro
  Papp A→B: 84 nm/s
[42]
  IC50: 0.021 µM
[43]
  IC50: 0.013 µM
[44]
  IC50: 5.54 µM
Transporter
  IC50: 0.015 µM
[45]
  IC50: 2 µM

## C=CCN(CC=C)C(=O)[C@@]1(c2cccs2)C[C@H]1CN
Rattus norvegicus [46]
  Activity: Active
Rattus norvegicus [47]
  Activity: Dose-dependent effect

## C=CCN(Cc1nccs1)C(=O)[C@@]1(c2cccs2)C[C@H]1CN
[18]
  logD: -0.4
[19]
  logP: 1.6
[20]
  CLhep predicted at 1 µM: 0.42 L/h/kg
[21]
  CLhep predicted at 1 µM: 2.82 L/h/kg
physchem
  pKa: 9.4
In vitro
  Papp A→B: 64 nm/s
[42]
  IC50: 0.013 µM
[43]
  IC50: 0.016 µM
[44]
  IC50: > 10 µM

## C=CCN(CC=C)C(=O)[C@@]1(c2cccs2)C[C@H]1CN.Cl
[1]
  clearance: 1.37 L/h/kg
[2]
  CL renal: 0.234 L/h/kg
[3]
  half-life: 2.1 h
[4]
  Vd: 3.8 L/kg
[5]
  Cmax: 0.905 µg/mL
[6]
  Tmax: 4.5 h
[7]
  AUC: 6.32 µg·h/mL
[8]
  bioavailability: 34%
[9]
  clearance: 1.15 L/h/kg
[10]
  CL renal: 0.12 L/h/kg
[11]
  half-life: 2.4 h
[12]
  Vd: 3.6 L/kg
[14]
  Tmax: 1.8 h
[15]
  AUC: 17.1 µg·h/mL
[16]
  bioavailability: 78%
[48]
  clearance: 8.1 L/h/kg
[49]
  half-life: 0.79 h
[50]
  Vd: 5.4 L/kg
[51]
  Cmax: 1.73 µg/mL
[52]
  Tmax: 0.3 h
[53]
  AUC: 3.02 µg·h/mL
[54]
  bioavailability: 92%

## C#CCN(CC#C)C(=O)[C@@]1(c2cccs2)C[C@H]1CN
[18]
  logD: 0.2
[19]
  logP: 1.5
[20]
  CLhep predicted at 1 µM: 0.156 L/h/kg
[21]
  CLhep predicted at 1 µM: 2.58 L/h/kg
physchem
  pKa: 9.3
In vitro
  Papp A→B: 250 nm/s
[42]
  IC50: 0.006 µM
[43]
  IC50: 0.026 µM
[44]
  IC50: > 10 µM

From ChEMBL document CHEMBL1152288, “Characterization of thien-2-yl 1S,2R-milnacipran analogues as potent norepinephrine/serotonin transporter inhibitors for the treatment of neuropathic pain” (J Med Chem, 2008)
